Assay results from PMC7170309, “Imidazopyridine-fused [1,3]diazepinones: modulations of positions 2 to 4 and their impacts on the anti-melanoma activity” (Journal of Enzyme Inhibition and Medicinal Chemistry, 2020).
Values belong to the compound of their own block, whether it stands above or below them.

Legend:
[1] = test system: MDA-MB-435 melanoma cells; assay: Neutral red uptake (NRU) viability assay, MDA-MB-435; assay type: cell-based, human; conditions: Homo sapiens, MDA-MB-435; NRU assay, 72 h, mean ± SD of three experiments
Description: Melanoma human cancer cell line (A375 and MDA-MB-435) were obtained from ATCC. The NIH-3T3 cell line was generously gifted by the ANSM (French National Agency for Medicines and Health Products Safety, Vendargues, France). Cells were cultured in Dulbecco’s Modified Eagle Medium (DMEM, Sigma Aldrich) supplemented with 10% heat-inactivated foetal calf serum (FCS, Gibco), 2 mM glutamax (Gibco), 100 IU/mL penicillin G sodium (Sigma Aldrich), 100 lU/mL streptomycin sulphate (Sigma Aldrich). The cells were allowed to grow at 37 °C in a fully humidified atmosphere containing 5% CO2.
A viability assay was used to evaluate the cytotoxic activity on A375 and MDA-MB-435 melanoma cells as previously described. According to OCDE/ICCVAM guidance n°129, NRU assay was also used to evaluate the toxicity on the non-cancerous NIH-3T3 cells. Cells were seeded at a final concentration of 2000 cells/well (A375), 3000 cells/well (NIH-3T3) or 7500 cells/well (MDA-MB-435) in 96-well microtiter plates for 24 h. Then, cells were exposed to two negative controls (1% DMSO in culture medium (vehicle) and culture medium alone), or to different compounds freshly dissolved in DMSO, in a range of concentration from 0.01 to 40 µM (six wells per concentration). After 72 h of incubation, cells were stained with new medium containing 50 µg/mL of neutral red (3-amino-7-dimethylamino-2-methylphenazine hydrochloride, Sigma Aldrich) at 37 °C for 2 h. The neutral red medium solution was then removed and the wells were washed with PBS. Finally, 100 µL of solution containing ethanol, acetic acid and water (50/1/49 v/v/v respectively) were added into the wells and the absorbance was measured at 540 nm using the microplate reader 352 Multiscan MS (Labsystems). Cell survival rates were normalised to the absorbance values of untreated control cells. IC50 was obtained using a logistic regression model on Graphpad Prism 5.0 software. Results are given as the mean ± standard deviation (SD) of three independent experiments. Statistical analysis was performed using the Student’s t-test.

[2] = test system: NCI-60 cancer cell line panel; assay: NCI-60 SRB assay, whole panel; assay type: cell-based, human; conditions: 10 µM, 48 h
Description: (§1) Primary anticancer assay was performed on a panel of 60 human cancer cell lines derived from nine neoplastic diseases, in accordance with the protocol of the Drug Evaluation Branch, National Cancer Institute, Bethesda, Maryland, USA[22]. Cells were incubated with tested compounds at 10 µM for 48 h. The growth percentage was evaluated spectrophotometrically using a protein binding dye, SRB. Results for each tested compound were reported as the percent of growth of treated cells when compared to untreated control cells.
(§2) To better compare the activity profile of these two series of compounds, compounds 5 and 8 were selected and then evaluated towards a panel of sixty cancer cell lines corresponding to nine different cancer types, i.e. leukaemia, melanoma, as well as lung, colon, central nervous system, ovarian, renal, prostate and breast cancers (NCI evaluation). Indeed, it is now well established that the growth inhibitory patterns of anticancer drugs against the NCI-60 cell line panel correlated well with their modes of action. For example, compounds that bind to tubulin have similar growth inhibition patterns regardless of which site on tubulin they bind[30]. […] Compounds were tested using the sulforhodamine B (SRB) assay that provides a direct cell density index. The amount of dye incorporated by the cells increases with the increase of the total protein biomass. Cells were incubated for 48 h with compounds at 10 µM concentration, then cell growth was evaluated spectrophotometrically and presented as the percent of untreated control cells. Values of the most sensitive cell lines were compared to those obtained with JMV5038 (Figure 4, for all data see SI).

[3] = test system: NCI-H23; assay: NCI-60 SRB assay, NCI-H23 (NSCLC); assay type: cell-based, human; conditions: 10 µM, 48 h; for G%: growth vs untreated control
Description: as §1, §2

[4] = test system: HCT-15; assay: NCI-60 SRB assay, HCT-15 (Colon Cancer); assay type: cell-based, human; conditions: 10 µM, 48 h; for G%: growth vs untreated control
Description: as §1, §2

[5] = test system: SF-268; assay: NCI-60 SRB assay, SF-268 (CNS Cancer); assay type: cell-based, human; conditions: 10 µM, 48 h; for G%: growth vs untreated control
Description: as §1, §2

[6] = test system: MALME-3M; assay: NCI-60 SRB assay, MALME-3M (Melanoma); assay type: cell-based, human; conditions: 10 µM, 48 h; for G%: growth vs untreated control
Description: as §1, §2

[7] = test system: M14; assay: NCI-60 SRB assay, M14 (Melanoma); assay type: cell-based, human; conditions: 10 µM, 48 h; for G%: growth vs untreated control
Description: as §1, §2

[8] = test system: MDA-MB-435; assay: NCI-60 SRB assay, MDA-MB-435 (Melanoma); assay type: cell-based, human; conditions: 48 h; for Mean G% - G% / G%: MDA-MB-435, 10 µM, SRB; for G%: growth vs untreated control;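 as to Mean G% - G%: mean growth across the NCI-60 panel minus this line's growth with positive meaning more sensitive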
Description: as §1, §2

[9] = test system: SK-MEL-28; assay: NCI-60 SRB assay, SK-MEL-28 (Melanoma); assay type: cell-based, human; conditions: 10 µM, 48 h; for G%: growth vs untreated control
Description: as §1, §2

[10] = test system: SK-MEL-5; assay: NCI-60 SRB assay, SK-MEL-5 (Melanoma); assay type: cell-based, human; conditions: 10 µM, 48 h; for G%: growth vs untreated control
Description: as §1, §2

[11] = test system: UACC-62; assay: NCI-60 SRB assay, UACC-62 (Melanoma); assay type: cell-based, human; conditions: 10 µM, 48 h; for G%: growth vs untreated control
Description: as §1, §2

[12] = test system: OVCAR-3; assay: NCI-60 SRB assay, OVCAR-3 (Ovarian Cancer); assay type: cell-based, human; conditions: 10 µM, 48 h; for G%: growth vs untreated control;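 as to Mean G% - G%: mean growth across the NCI-60 panel minus this line's growth with positive meaning more sensitive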
Description: as §1, §2

[13] = test system: OVCAR-4; assay: NCI-60 SRB assay, OVCAR-4 (Ovarian Cancer); assay type: cell-based, human; conditions: 10 µM, 48 h; for G%: growth vs untreated control;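 as to Mean G% - G%: mean growth across the NCI-60 panel minus this line's growth with positive meaning more sensitive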
Description: as §1, §2

[14] = test system: OVCAR-8; assay: NCI-60 SRB assay, OVCAR-8 (Ovarian Cancer); assay type: cell-based, human; conditions: 10 µM, 48 h; for G%: growth vs untreated control;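 as to Mean G% - G%: mean growth across the NCI-60 panel minus this line's growth with positive meaning more sensitive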
Description: as §1, §2

[15] = test system: SK-OV-3; assay: NCI-60 SRB assay, SK-OV-3 (Ovarian Cancer); assay type: cell-based, human; conditions: 10 µM, 48 h; for G%: growth vs untreated control
Description: as §1, §2

[16] = test system: 786-0; assay: NCI-60 SRB assay, 786-0 (Renal Cancer); assay type: cell-based, human; conditions: 10 µM, 48 h; for G%: growth vs untreated control
Description: as §1, §2

[17] = test system: A498; assay: NCI-60 SRB assay, A498 (Renal Cancer); assay type: cell-based, human; conditions: 10 µM, 48 h; for G%: growth vs untreated control
Description: as §1, §2

[18] = test system: UO-31; assay: NCI-60 SRB assay, UO-31 (Renal Cancer); assay type: cell-based, human; conditions: 10 µM, 48 h; for G%: growth vs untreated control
Description: as §1, §2

[19] = test system: PC-3; assay: NCI-60 SRB assay, PC-3 (Prostate Cancer); assay type: cell-based, human; conditions: 10 µM, 48 h; for G%: growth vs untreated control
Description: as §1, §2

[20] = test system: DU-145; assay: NCI-60 SRB assay, DU-145 (Prostate Cancer); assay type: cell-based, human; conditions: 10 µM, 48 h; for G%: growth vs untreated control
Description: as §1, §2

[21] = test system: MDA-MB-231; assay: NCI-60 SRB assay, MDA-MB-231 (Breast Cancer); assay type: cell-based, human; conditions: 10 µM, 48 h; for G%: growth vs untreated control
Description: as §1, §2

[22] = test system: MDA-MB-468; assay: NCI-60 SRB assay, MDA-MB-468 (Breast Cancer); assay type: cell-based, human; conditions: 10 µM, 48 h; for G%: growth vs untreated control
Description: as §1, §2

IC50 [1]: 4.75 ± 0.21 µM
melting point: 235 to 236 °C (dec.)
SMILES: C[C@@H]1NC(c2ccc(N=[N+]=[N-])cc2)=Nc2nc3ccccn3c2C1=O [Compound 5, (4S)-4-methyl-2-(4-azidophenyl)-3,4-dihydro-5H-pyrido[1’,2’:1,2]imidazo[4,5-d][1,3]diazepin-5-one]
Mean G% (mean growth over the panel) [2]: 85,26%
Mean G% - G% [3]: -1,81%
G% [3]: 87,07%
Mean G% - G% [4]: 16,87%
G% [4]: 68,39%
Mean G% - G% [5]: -12,35%
G% [5]: 97,61%
Mean G% - G% [6]: 3,28%
G% [6]: 81,98%
Mean G% - G% [7]: 3,28%
G% [7]: 81,98%
inhibition at 10 µM ([8]; Homo sapiens, MDA-MB-435, NCI-60 SRB, read-out: growth inhibition percentage): 87%
Mean G% - G% [8]: 72,64%
G% [8]: 12,62%
Mean G% - G% [9]: -9,13%
G% [9]: 94,39%
Mean G% - G% [10]: 14,40%
G% [10]: 70,86%
Mean G% - G% [11]: 17,97%
G% [11]: 67,29%
Mean G% - G% [12]: -12,28%
G% [12]: 97,54%
Mean G% - G% [13]: -3,32%
G% [13]: 88,58%
Mean G% - G% [14]: -16,08%
G% [14]: 101,34%
Mean G% - G% [15]: -1,19%
G% [15]: 86,45%
Mean G% - G% [16]: -9,88%
G% [16]: 95,14%
Mean G% - G% [17]: -14,16%
G% [17]: 99,42%
Mean G% - G% [18]: 15,67%
G% [18]: 69,59%
Mean G% - G% [19]: -10,97%
G% [19]: 96,23%
Mean G% - G% [20]: -18,38%
G% [20]: 103,64%
Mean G% - G% [21]: 4,91%
G% [21]: 80,35%
Mean G% - G% [22]: 11,88%
G% [22]: 73,38%

SMILES: C[C@@H]1NC(c2csc3ccccc23)=Nc2nc3ccccn3c2C1=O [Compound 8, (4S)-4-methyl-2-benzothiophen-3-yl-3,4-dihydro-5H-pyrido[1’,2’:1,2]imidazo[4,5-d][1,3]diazepin-5-one]
IC50 [1]: 10.12 ± 0.08 µM
Mean G% (mean growth over the panel) [2]: 74.87%
Mean G% - G% [3]: 3,92%
G% [3]: 70,95%
Mean G% - G% [4]: -1,17%
G% [4]: 76,04%
Mean G% - G% [5]: 8,82%
G% [5]: 66,05%
Mean G% - G% [6]: -0,21%
G% [6]: 75,08%
Mean G% - G% [7]: -16,75%
G% [7]: 91,62%
Mean G% - G% [8]: -0,17%
G% [8]: 75,04%
Mean G% - G% [9]: -23,33%
G% [9]: 98,20%
Mean G% - G% [10]: 12,92%
G% [10]: 61,95%
Mean G% - G% [11]: -12,07%
G% [11]: 86,94%
Mean G% - G% [12]: -5,26%
G% [12]: 80,13%
Mean G% - G% [13]: 0,79%
G% [13]: 74,08%
Mean G% - G% [14]: -9,67%
G% [14]: 84,54%
Mean G% - G% [15]: 7,58%
G% [15]: 67,29%
Mean G% - G% [16]: -14,72%
G% [16]: 89,59%
Mean G% - G% [17]: 13,54%
G% [17]: 61,33%
Mean G% - G% [18]: 22,87%
G% [18]: 52,00%
Mean G% - G% [19]: -2,69%
G% [19]: 77,56%
Mean G% - G% [20]: 2,24%
G% [20]: 72,63%
Mean G% - G% [21]: 6,94%
G% [21]: 67,93%
Mean G% - G% [22]: 4,18%
G% [22]: 70,69%
melting point: 135 to 137 °C
